The text below walks through data of PMC5863515, “Re-evaluation of Adrenocorticotropic Hormone and Melanocyte Stimulating Hormone Activation of GPR139 in Vitro” (Frontiers in Pharmacology, 2018).

Ends that are not written are not given here.

Assay [1] addresses MC3R + GPR139 (Homo sapiens, UniProt Q6DWJ6). The assay is described as follows: Calcium mobilization, HEK-293 transiently expressing MC3R + GPR139. The class given is cell-based. The following applies: MC3R + GPR139; 10 μM JNJ-3792165 or 1 μM HS-024.
Protocol: Intracellular calcium mobilization was measured with the BD calcium kit (BD Bioscience, San Jose, CA, United States). The recombinant cell lines expressing MC3R, MC4R, and MC5R with and without GPR139 or Gα16 were seeded in culture media at a density of 50,000 cells/well into 96-well black/clear-bottom poly-D-lysine treated tissue culture plates. Cells were incubated overnight at 37°C and 5% CO2. Next day, culture media was removed and cells were washed with HBSS prior to dye-loading for 1 h at 37°C and 5% CO2. Agonist stimulation and intracellular calcium measurements were done on the FLIPR Tetra (Molecular Devices, Sunnyvale, CA, United States). […] EC50s were calculated by fitting a three-parameter logistic curve using least-squares non-linear regression analysis as implemented in Graphpad Prism 7.0.
In assay [2] the target is MC5R + GPR139 (Homo sapiens, UniProt Q6DWJ6). The assay is described as follows: Calcium mobilization, HEK-293 transiently expressing MC5R + GPR139. Type of assay: cell-based. The following applies: MC5R + GPR139; 10 μM JNJ-3792165 or 1 μM HS-024. The protocol:
(§1) Human MC3R (NM_019888), MC4R (NM_005912), and MC5R (NM_005913) were transiently expressed in HEK-293 cells with and without human GPR139 (KR081941) or the chimeric G-protein Gα16. All genes were cloned into pCIneo (Promega, Madison, WI, United States, #E1841). HEK-293 cells were cultured in DMEM/F12 (Gibco, Grand Island, NY, United States, #11039-021), 10% FBS (Hyclone, Logan, UT, United States, # SH300700.03), 50 units/ml penicillin and 50 μg/ml streptomycin (Mediatech, Manassas, VA, United States, #30-001-CI). Cells were seeded at 4 × 10^6 cells in 10 cm dishes and allowed to grow overnight at 37°C, 5% CO2. On the day of transfection, culture media was replaced with F12-K (Mediatech, Manassas, VA, United States, #10-025-CV), 10% FBS, 20 mM HEPES (Hyclone, Logan, UT, United States, #SH30237.01) and transfected with 15 μg DNA (10 μg MCR:5 μg pCIneo, 10 μg MCR:5 μg Gα16 or 7.5 μg MCR:7.5 μg GPR139) using FuGene HD (Promega, Madison, WI, United States, #E2311) according to manufacturer’s instructions. MC3R, MC4R, and MC5R were also transiently expressed in the following GPR139 stably expressing cell lines using the FuGENE HD method: HEK-293 GPR139 clone#33, CHO-TREx GPR139 clone#18, and SK-N-MC/CRE TREx GPR139 clone#35. Stable cell lines were established according to method previously described ([Liu et al., 2015]).
(§2) Intracellular calcium mobilization was measured with the BD calcium kit (BD Bioscience, San Jose, CA, United States). The recombinant cell lines expressing MC3R, MC4R, and MC5R with and without GPR139 or Gα16 were seeded in culture media at a density of 50,000 cells/well into 96-well black/clear-bottom poly-D-lysine treated tissue culture plates. Cells were incubated overnight at 37°C and 5% CO2. Next day, culture media was removed and cells were washed with HBSS prior to dye-loading for 1 h at 37°C and 5% CO2. Agonist stimulation and intracellular calcium measurements were done on the FLIPR Tetra (Molecular Devices, Sunnyvale, CA, United States). For receptor inhibition analysis, antagonists (1 μM HS-024 or 10 μM JNJ-3792165) were added off-line 15 min prior to agonist addition on the Tetra. For G-protein inhibitor experiments, cells were treated with 1 μM YM-254890 for 5 min prior to agonist additions on the Tetra. […] Responses in Figure 6 were normalized to its respective agonist response without antagonist. EC50s were calculated by fitting a three-parameter logistic curve using least-squares non-linear regression analysis as implemented in Graphpad Prism 7.0.
In general terms: A change in cytosolic calcium serves as a functional read-out for many receptors and channels.

Assay [3] deals with T1, GPR139 (Homo sapiens, UniProt Q6DWJ6).
T1 sequence (Q6DWJ6 1-353): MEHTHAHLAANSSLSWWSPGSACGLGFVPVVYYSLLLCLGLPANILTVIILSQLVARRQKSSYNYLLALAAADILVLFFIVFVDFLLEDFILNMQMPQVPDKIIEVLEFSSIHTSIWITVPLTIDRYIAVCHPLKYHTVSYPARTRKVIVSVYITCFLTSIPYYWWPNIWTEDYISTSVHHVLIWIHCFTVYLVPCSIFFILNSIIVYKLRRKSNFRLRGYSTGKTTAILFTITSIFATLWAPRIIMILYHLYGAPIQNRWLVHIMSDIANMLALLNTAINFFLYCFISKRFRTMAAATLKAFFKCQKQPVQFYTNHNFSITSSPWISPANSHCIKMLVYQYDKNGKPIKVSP
The experiment in a line: [35S]-GTPγS binding assay, membranes of CHO-TREx cells stably expressing GPR139. Type of assay: biochemical. On the set-up: expressed in transfected cells; host or cells: CHO-TREx GPR139 clone#18. On the procedure:
For G-protein inhibitor experiments, CHO-TRex cells stably expressing GPR139 were treated with 100 ng/ml pertussis toxin (Gi/o inhibitor) overnight prior to harvesting cells for membrane preparations. […] Reactions were terminated by rapid filtration through GF/C filterplates (Perkin-Elmer, Waltham, MA, United States) on a Cell Harvester (Perkin-Elmer, Waltham, MA, United States). Filterplates were washed three times with ice-cold wash buffer (50 mM Tris, 5 mM MgCl2) and Microscint-40 was added to each well. Bound radioactivity was measured on a Topcount scintillation counter (Perkin-Elmer, Waltham, MA, United States). […] EC50s were calculated by modeling the response associated with the logarithm of concentration as a three-parameter logistic curve with the Bottom plateau parameter fixed at 0. The fit was obtained using least-squares non-linear regression as implemented in GraphPad Prism 7.0.
For orientation: GTPγS resists hydrolysis and so accumulates on activated G proteins.

Assay [4] deals with T1, GPR139. The experiment in a line: [3H]JNJ-63533054 radioligand binding assay, membranes of CHO-TREx cells stably expressing human GPR139. The following applies: 10 nM radioligand; CHO-TREx GPR139 membranes; read-out: pKi, displacement of [3H]JNJ-63533054 (converted). On the set-up: expressed in transfected cells; host or cells: CHO-TREx GPR139 clone#18. The protocol: Reaction was terminated by filtration through GF/C filterplates pre-treated with PEI (polyethyleneimine) followed by washes with ice-cold TE buffer. Filterplates were dried in a 60°C oven followed by addition of Microscint-0. Bound radioactivity was read on a Topcount scintillation counter. […] Half-maximal inhibitory concentrations (IC50s) of test compounds were calculated by fitting a three-parameter logistic curve using least-squares non-linear regression analysis as implemented in Graphpad Prism 7.0. The Top plateau was fixed at 100 and the Bottom was fixed at 0.
Background: Displacement assays read how much labelled ligand stays bound in the presence of the test substance.

Assay [5] has as its target T1, GPR139. The assay is described as follows: Calcium mobilization assay, antagonism at GPR139 (cell line not stated). Type of assay: cell-based. On the set-up: expressed in transfected cells; host or cells: CHO-TREx GPR139 clone#18. As to conditions: read-out: pKb, antagonist in calcium mobilization assay (converted). On the procedure:
as §2

For assay [6], the target named is MC4R + GPR139 (Homo sapiens, UniProt Q6DWJ6). The experiment in a line: Calcium mobilization, HEK-293 transiently expressing MC4R + GPR139. The class given is cell-based. The following applies: MC4R + GPR139; 10 μM JNJ-3792165 or 1 μM HS-024. The protocol:
as §1, §2

Assay [7] concerns over 50 other neurotransmitter and neuropeptide receptors including the MCRs. The assay is described as follows: Selectivity panel of over 50 other neurotransmitter and neuropeptide receptors. The class given is binding. The following applies: at 1 μM.
The target in assay [8] is T1, GPR139. On the set-up: method as in Liu et al., 2015. The following applies: ref Liu et al., 2015; cited from earlier work.
Assay [9] addresses T1, GPR139. The assay is described as follows: Calcium mobilization, HEK-293 cells stably expressing human GPR139. The class given is cell-based. Also on record: expressed in transfected cells. As to conditions: HEK-293 stable GPR139. The protocol:
as §1, §2

Assay [10] concerns the target MC4R + Gα16 (Homo sapiens, UniProt P32245). The experiment in a line: Calcium mobilization, CHO-K1 cells transiently expressing MC4R + Gα16. Type of assay: cell-based. On the set-up: expressed in transfected cells; host or cells: CHO-K1, transient. As to conditions: data not shown.
Assay [11] deals with T1, GPR139. Also on record: expressed in transfected cells; host or cells: CHO-TREx GPR139 clone#18; method as in Nøhr et al. (2017b). The following applies: ref Nøhr et al. (2017b), cited from earlier work; for Activation of GPR139, potency range in words: CHO cells stably expressing human GPR139.
The target of assay [12] is T2, MC4R (Homo sapiens, UniProt P32245).
T2 construct: expressed in transfected cells; host or cells: HEK-293, pCIneo, transient (FuGene HD)
T2 sequence (P32245 whole entry): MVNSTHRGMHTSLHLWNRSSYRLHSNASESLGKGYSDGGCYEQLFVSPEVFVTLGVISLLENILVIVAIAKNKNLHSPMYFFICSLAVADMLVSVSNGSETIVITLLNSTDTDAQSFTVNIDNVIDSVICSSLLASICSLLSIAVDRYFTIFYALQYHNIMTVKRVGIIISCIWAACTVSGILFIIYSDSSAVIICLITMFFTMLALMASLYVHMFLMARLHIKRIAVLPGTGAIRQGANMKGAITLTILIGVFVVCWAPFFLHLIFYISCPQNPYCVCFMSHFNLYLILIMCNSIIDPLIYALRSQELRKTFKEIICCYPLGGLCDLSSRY
The experiment in a line: Calcium mobilization, HEK-293 transiently expressing MC4R. Type of assay: cell-based. As to conditions: HEK293; HEK-293 transient MC4R alone; read-out: Emax, calcium release in MC4R expressing cells. On the procedure: as §1, §2

Assay [13] deals with T1, GPR139. The assay is described as follows: Calcium mobilization, SK-N-MC/CRE cells stably expressing human GPR139. Type of assay: cell-based. On the set-up: expressed in transfected cells; host or cells: CHO-TREx GPR139 clone#18. The following applies: SK-N-MC/CRE stable GPR139. On the procedure:
as §1, §2

For assay [14], the target named is T1, GPR139. The experiment in a line: Calcium mobilization, CHO-TREx cells stably expressing human GPR139. Type of assay: cell-based. Also on record: expressed in transfected cells; host or cells: CHO-TREx GPR139 clone#18. The following applies: CHO-TREx stable GPR139.

MC5R + GPR139, sequence (P33032 whole entry partner, one chain of several): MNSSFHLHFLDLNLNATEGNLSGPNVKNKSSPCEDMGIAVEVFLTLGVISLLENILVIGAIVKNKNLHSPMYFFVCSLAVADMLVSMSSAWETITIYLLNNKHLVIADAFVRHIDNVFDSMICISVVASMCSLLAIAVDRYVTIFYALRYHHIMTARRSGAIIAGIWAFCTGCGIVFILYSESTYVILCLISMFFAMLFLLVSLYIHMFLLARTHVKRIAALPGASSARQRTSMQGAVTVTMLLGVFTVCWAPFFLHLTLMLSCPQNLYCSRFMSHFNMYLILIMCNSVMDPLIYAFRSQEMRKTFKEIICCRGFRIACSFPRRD
MC3R + GPR139, sequence (P41968 whole entry partner, one chain of several): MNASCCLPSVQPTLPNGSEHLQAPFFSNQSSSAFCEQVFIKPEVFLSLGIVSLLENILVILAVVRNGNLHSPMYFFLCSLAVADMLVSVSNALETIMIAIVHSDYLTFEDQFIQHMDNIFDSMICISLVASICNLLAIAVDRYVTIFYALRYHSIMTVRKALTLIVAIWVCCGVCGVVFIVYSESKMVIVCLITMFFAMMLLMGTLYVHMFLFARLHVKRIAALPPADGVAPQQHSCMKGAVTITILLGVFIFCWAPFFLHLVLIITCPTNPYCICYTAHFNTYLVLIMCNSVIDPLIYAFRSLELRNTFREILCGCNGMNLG
MC4R + GPR139, sequence (P32245 whole entry partner, one chain of several): as the sequence (P32245 whole entry) above
MC4R + Gα16, sequence (P32245 whole entry): as above

Turning to `Cc1cccc(NC(=O)c2cc(C)n(Cc3c(Cl)cccc3Cl)n2)c1` [JNJ-3792165, 1H-pyrazole-3-carboxamide, 1-[(2,6-dichlorophenyl)methyl]-5-methyl-N-(3-methylphenyl)], the “Antagonist effect on ACTH, α-MSH and β-MSH induced calcium response” value in assay [1], in assay [2] and in assay [6] was “did not block” each time. For the same molecule, the “Antagonist effect on calcium response to GPR139 agonists (JNJ-63533054, TC-09311, L-Trp)” value in [1], in assay [2] and in assay [6] was “fully inhibited” each time. The Kb in [3] (read-out: pKb, antagonist in [35S]GTPγS assay (converted)) is 39.8 nM; in assay [5], 126 nM. The Ki in assay [4] is 20 nM. Further, in [7], the “Inhibition at any receptor other than GPR139 (selectivity panel)” value is reported as “less than 50%”.
As to `N[C@@H](Cc1ccccc1)C(=O)O` [L-Phe, L-phenylalanine], the EC50 (in general, the concentration that produces a half-maximal response) in [8] is 30000 to 300000 nM.
With `CSCC[C@H](NC(=O)[C@H](CCCNC(=N)N)NC(=O)[C@H](Cc1ccc(O)cc1)NC(=O)[C@@H]1CCCN1C(=O)CNC(=O)[C@H](CCC(=O)O)NC(=O)[C@H](CC(=O)O)NC(=O)[C@H](CCCCN)NC(=O)[C@H](CCCCN)NC(=O)[C@H](CCC(=O)O)NC(=O)[C@H](C)N)C(=O)N[C@@H](CCC(=O)O)C(=O)N[C@@H](Cc1c[nH]cn1)C(=O)N[C@@H](Cc1ccccc1)C(=O)N[C@@H](CCCNC(=N)N)C(=O)N[C@@H](Cc1c[nH]c2ccccc12)C(=O)NCC(=O)N[C@@H](CO)C(=O)N1CCC[C@H]1C(=O)N1CCC[C@H]1C(=O)N[C@@H](CCCCN)C(=O)N[C@@H](CC(=O)O)C(=O)O` [β-MSH, β melanocyte stimulating hormone], the “Calcium mobilization activity, in words” value in assay [9], in [13] and in assay [14] was “No activity was detected” in each case. Also, in assay [10], the “Calcium response in CHO-K1 cells co-expressing MC4R + Gα16” value was “calcium response”. Further, the “Activation of GPR139, potency range in words” value in assay [11] was “sub- to low micromolar range”. Moreover, in assay [12], the maximum response (Emax) – broadly, the size of the effect at its maximum, as opposed to the concentration needed – amounted to 24%. The “Activation of GPR139 ([35S]-GTPγS incorporation), in words” value in assay [3] (up to 30 μM) is “did not activate GPR139”.
HS-024: the “Antagonist effect on ACTH, α-MSH and β-MSH induced calcium response” value in [1] is “rightward shift of the EC50”; in [2], “fully blocked”; in assay [6] it was “reduction in both potency and efficacy”. Also, the “Antagonist effect on calcium response to GPR139 agonists (JNJ-63533054, TC-09311, L-Trp)” value in assay [1] is “had no effect”; in assay [2], “reduced the efficacy”; in [6], “had no effect”.
“SYSMEHFRWGKPVGKKRRPVKVYPNGAEDESAEAFPLEF [ACTH, adrenocorticotropic hormone]”: in [9], the “Calcium mobilization activity, in words” value is “did not increase calcium mobilization”. Further, the “Calcium response in CHO-K1 cells co-expressing MC4R + Gα16” value in assay [10] was “calcium response”. Moreover, in [11], the “Activation of GPR139, potency range in words” value is reported as “sub- to low micromolar range” and the “Fold less potent on GPR139 than on MC4R” value was 100 fold. The maximum response (Emax) in [12] worked out at 27%.
